Assay results published in US6709830B2, “Methods for modulating the activation of a lymphocyte expressed G protein coupled receptor involved in cell proliferation, autoimmunity and inflammation” (The Regents of the University of California, priority 1997, dated 2004).
Entries after “also recorded” stand apart in the source; their conditions may differ.

Key:
[1] = target: T1, G2A (Mus musculus, UniProt Q9Z282); experiment: ERK MAP kinase assay (phospho-ERK Western blot) in CHO G2A.GFP cells; type: cell-based; conditions: serum starved CHO G2A.GFP cells, LPC 0.01 μM to 10 μM, 10 minutes
T1 construct: expressed in transfected cells; host or cells: MCF 10A (human breast epithelial cells, no endogenous G2A), plasmid pEXV3 G2A.GFP
T1 sequence (Q9Z282 1-382): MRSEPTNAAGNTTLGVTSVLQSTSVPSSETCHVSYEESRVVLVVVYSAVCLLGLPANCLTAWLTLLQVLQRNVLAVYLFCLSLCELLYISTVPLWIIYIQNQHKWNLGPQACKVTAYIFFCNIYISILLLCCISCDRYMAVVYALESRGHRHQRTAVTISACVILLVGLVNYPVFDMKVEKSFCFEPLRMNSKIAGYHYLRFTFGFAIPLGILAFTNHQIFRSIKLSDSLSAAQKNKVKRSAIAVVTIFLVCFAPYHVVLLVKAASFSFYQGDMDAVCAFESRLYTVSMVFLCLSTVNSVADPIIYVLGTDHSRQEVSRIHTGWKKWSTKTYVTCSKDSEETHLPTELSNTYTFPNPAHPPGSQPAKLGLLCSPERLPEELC
Procedure: Further exploration of the cellular response to LPC was undertaken in Chinese hamster ovary (CHO) cells. Stable lines of G2A expressing CHO cells were derived by infection with retroviruses encoding G2A.GFP (MSCV G2A.GFP). We examined ERK MAP kinase activity in control CHO GFP and CHO G2A.GFP cells in response to varying doses of LPC (0.01 μM to 10 μM).
CHO GFP or CHO G2A.GFP cells were serum starved for 18 hours prior to treatment with LPC for 10 minutes at 37° C. Western blotting was performed to detect activated p44/42 ERK MAP kinase using a specific phospho-ERK antibody (Santa Cruz Biotechnology,).

[2] = test system: MCF 10A cells; experiment: Calcium assay ([Ca2+]i, Fura-2) in parental or pEXV3 GFP transfected MCF 10A cells (control); type: cell-based, human; conditions: SPC or LPC up to 10 μM, LPA 1 μM, PAF 0.1 μM, ATP 20 μM
Procedure: MCF 10A cells were cultured in specialised glass-bottom dishes (Bioptech, Inc., Butler, Pa.) and loaded with Fura-2/AM ([…]; Molecular Probes) at 37° C. for 30 minutes in HEPES buffered saline (pH 7.4) containing 125 mM NaCl, 5 mM KCl, 1.2 mM MgSO4, 11 mM glucose, 1.8 mM CaCl2, 25 mM HEPES, 0.2% BSA. Loaded cells were washed, placed in HEPES buffeted saline without BSA, and incubated for 30 minutes at ambient temperature ensure dye hydrolysis by cytosolic esterases. Using a dual-wavelength spectrofluorometer (RFK-6002, Photon Technology Int'l, So. Brunswick, N.J.) coupled to an inverted fluorescence microscope (Olympus, IX-70, Lake Success, N.Y.), GFP-positive cells were identified using an excitation wavelength of 488 nm, a dichroic 505 nm long-pass and an emitter bandpass of 535 nm (Chroma Technology, Brattleboro, Vt.). [Ca^2+], measurements were performed on individual GFP-positive cells at excitation wavelengths of 340 nm and 380 nm, and an emission wavelength of 510 nm. Prior to data acquisition, background fluorescence (areas without cells) was measured and automatically subtracted from subsequent measurements. Agonists were diluted in HEPES buffered saline and solution changes accomplished by rapidly aspirating the buffer and replacing it with HEPES buffered saline containing the specific agonist. Fura-2 fluorescence signals (340 nm, 380 nm and the 340/380 ratio) originating from individual GFP-positive cells were continuously monitored at a sampling frequency of 25 Hz and collected using a software package from Photon Technology International (Felix™). Conversion of the 340 nm/380 nm ratio value into [Ca^2+]i was estimated by comparing the cellular fluorescence ratio with ratios acquired using Fura-2 (free acid) in buffers containing known Ca^2+ concentrations. [Ca^2+]i was then calculated as described by Grynkiewicz, et al (Grynkiewicz, G, et al, J Biol Chem, 260: pp3440-3450, 1985). All assays were performed in assay buffers containing 1 mM EGTA to exclude measurement of calcium influx.
To address whether G2A is a lysophospholipid receptor, we examined signalling events in cells ectopically expressing G2A as functional correlates of receptor activation. […] [Ca^2+]i measurements were performed in MCF 10A cells transfected with plasmids encoding green fluorescent protein (GFP) tagged G2A (pEXV3 G2A.GFP) (Kabarowski, J H S, et al, PNAS, 97: pp12109-12114, 2000) or GFP as described (Yan Xu and Derek S. Damron, Methods in Molecular Medicine, 39: Ovarian Cancer: Methods and Protocols, pp611-619, 2000). […] Similarly, dose-dependent responses of G2A.GFP transfected cells to SPC were observed, with an EC50 of approximately 0.4 μM (FIG. 4B). […] Responses to these agonists were not affected by G2A.GFP expression (FIG. 4A, middle and lower panels).

Substance: lysophosphatidylcholine [LPC]
- ERK MAP kinase activity [1]: dose-dependent increases; also recorded: activates ERK MAP kinase
- [Ca2+]i response in control cells [2]: Neither parental or pEXV3 GFP transfected cells responded
